Drawing on US8716252B2, “(Methylsulfonyl) ethyl benzene isoindoline derivatives and their pharmaceutical uses” (Celgene Corporation, priority 2009, dated 2014), this text covers melting point for one molecule.

What is called melting point is the temperature, or range, at which the solid turns liquid.

Consider `CCOc1cc([C@@H](CS(C)(=O)=O)N2Cc3cccc(N)c3C2=O)ccc1OC` [Example 5.5, 7-amino-2-[(1S)-1-(3-ethoxy-4-methoxy-phenyl)-2-methanesulfonyl-ethyl]-2,3-dihydro-isoindol-1-one], for which the melting point was in the range of 135 to 137 °C.
